Measurements: patent US20080269293A1, “PYRAZOLE DERIVATIVES AS ANTI-PLATELET AND ANTI-THROMBOTIC AGENTS” (Pfizer Inc., priority 2006, published 2008)

Biological target: T1, platelet P2Y1 receptor (Homo sapiens, UniProt P47900)
T1 construct: expressed in transfected cells
Assay: P2Y1 receptor binding assay ([β-33P]-2-thiomethyl ADP)
Details: binding of 0.3 nM [β-33P]-2-thiomethyl ADP, hP2Y1 expressing 132N1 cell membrane, 25° C., 60 minutes

T1 sequence (P47900 whole entry): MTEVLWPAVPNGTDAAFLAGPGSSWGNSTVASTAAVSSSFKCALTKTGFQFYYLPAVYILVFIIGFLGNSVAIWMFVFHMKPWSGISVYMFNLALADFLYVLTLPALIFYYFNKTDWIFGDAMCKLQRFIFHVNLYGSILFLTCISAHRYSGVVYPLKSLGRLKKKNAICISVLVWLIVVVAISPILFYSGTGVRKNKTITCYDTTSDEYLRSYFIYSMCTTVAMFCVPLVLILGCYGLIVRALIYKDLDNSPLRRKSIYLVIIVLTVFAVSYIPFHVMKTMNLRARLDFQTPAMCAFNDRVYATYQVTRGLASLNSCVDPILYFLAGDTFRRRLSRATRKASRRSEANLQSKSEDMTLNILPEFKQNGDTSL

Row | IC50 [nM] | Compound
1 | 763 | Cc1cc(Oc2ccccc2NC(=O)Nc2ccc(C3CCOCC3)cc2)n(-c2ccccc2Cl)n1 [Example 128, 1-(2-(1-(2-chlorophenyl)-3-methyl-1H-pyrazol-5-yloxy)phenyl)-3-(4-(tetrahydro-2H-pyran-4-yl)phenyl)urea]
2 | > 10000 | Cc1cc(Oc2ccccc2NC(=O)Nc2ccc(C3CCS(=O)(=O)CC3)cc2)n(-c2ccccc2Cl)n1 [Example 129]
